“And” between values parts separate entries of the source, which are not always exact repeats. Equal values may be shown once.
Assay: molar heat capacity at saturation pressure

CC(C)(C)c1ccc(C(C)(C)C)cc1 [1,4-bis(1,1-dimethylethyl)benzene]
Conditions	molar heat capacity
140 K, Crystal 2	157.79 J/K/mol
148.14 K, Crystal 2	166.03 J/K/mol
160 K, Crystal 2	177.95 J/K/mol
160.18 K, Crystal 2	178.15 J/K/mol
172.27 K, Crystal 2	190.18 J/K/mol
180 K, Crystal 2	197.9 J/K/mol
184.35 K, Crystal 2	202.24 J/K/mol
196.47 K, Crystal 2	214.21 J/K/mol
200 K, Crystal 2	217.74 J/K/mol
208.62 K, Crystal 2	226.43 J/K/mol
220 K, Crystal 2	238.04 J/K/mol
220.76 K, Crystal 2	238.82 J/K/mol
232.87 K, Crystal 2	251.39 J/K/mol
240 K, Crystal 2	258.93 J/K/mol
246.43 K, Crystal 2	265.79 J/K/mol
260 K, Crystal 2	280.44 J/K/mol
261.46 K, Crystal 2	282.02 J/K/mol
276.43 K, Crystal 2	298.62 J/K/mol
280 K, Crystal 2	302.57 J/K/mol
284.66 K, Crystal 2	307.57 J/K/mol
291.28 K, Crystal 2	315.23 J/K/mol
293.84 K, Crystal 2	318.28 J/K/mol
298.15 K, Crystal 2	323.15 J/K/mol
298.15 K, Liquid	347.84 J/K/mol
300 K, Crystal 2	325.26 J/K/mol
300 K, Liquid	349.41 J/K/mol
302.67 K, Crystal 2	328.3 J/K/mol
304.12 K, Crystal 2	330 J/K/mol
305.99 K, Crystal 2	332.26 J/K/mol
310 K, Liquid	357.8 J/K/mol
315.02 K, Crystal 2	342.89 J/K/mol
320 K, Crystal 2	348.63 J/K/mol
320 K, Liquid	366 J/K/mol
327.23 K, Crystal 2	357.27 J/K/mol
330 K, Liquid	374.03 J/K/mol
339.27 K, Crystal 2	372.29 J/K/mol
340 K, Crystal 2	373.15 J/K/mol
340 K, Liquid	381.92 J/K/mol
340.54 K, Crystal 2	373.89 J/K/mol
350 K, Liquid	389.72 J/K/mol
350.73 K, Crystal 1	375.72 J/K/mol
350.73 K, Crystal 2	386.83 J/K/mol
350.78 K, Crystal 1	375.79 J/K/mol
350.78 K, Liquid	390.31 J/K/mol
354.93 K, Liquid	393.57 J/K/mol
356.83 K, Liquid	395.01 J/K/mol
358.46 K, Liquid	396.37 J/K/mol
358.5 K, Liquid	396.23 J/K/mol and 396.2 J/K/mol
360 K, Liquid	397.37 J/K/mol
363.7 K, Liquid	400.3 J/K/mol
366.52 K, Liquid	402.21 J/K/mol
374.01 K, Liquid	407.95 J/K/mol
380 K, Liquid	412.36 J/K/mol
380.16 K, Liquid	412.53 J/K/mol
395.48 K, Liquid	423.8 J/K/mol
398.2 K, Liquid	425.82 J/K/mol
400 K, Liquid	427.09 J/K/mol
416.83 K, Liquid	439.37 J/K/mol
417.39 K, Liquid	439.74 J/K/mol
420 K, Liquid	441.61 J/K/mol
433.85 K, Liquid	451.62 J/K/mol
435.24 K, Liquid	452.59 J/K/mol
440 K, Liquid	456.08 J/K/mol

— the NIST ThermoML archive (doi:10.1016/j.jct.2008.10.008)
